According to ChEMBL document CHEMBL5365454, “Strong Binding of C-Glycosylic1,2-Thiodisaccharides to Galectin-3─Enthalpy-Driven Affinity Enhancement by Water-Mediated Hydrogen Bonds” (J Med Chem, 2023):

Columns and labels:
[1] = target: Galectin-3 (Homo sapiens) (UniProt P17931); experiment: Binding affinity to recombinant human galectin-3 carbohydrate recognition domain expressed in Escherichia coli BL21 (DE3) cells assessed as change in enthalpy by Nano-ITC analysis
[2] = target: Galectin-3 (Homo sapiens) (UniProt P17931); experiment: Binding affinity to recombinant human galectin-3 carbohydrate recognition domain expressed in Escherichia coli BL21 (DE3) cells assessed as change in entropy by Nano-ITC analysis
[3] = target: Galectin-3 (Homo sapiens) (UniProt P17931); experiment: Binding affinity to recombinant human galectin-3 carbohydrate recognition domain expressed in Escherichia coli BL21 (DE3) cells assessed as gibbs free energy change by Nano-ITC analysis

Galectin-3 (Homo sapiens), sequence (P17931 whole entry, the tested form may be a part): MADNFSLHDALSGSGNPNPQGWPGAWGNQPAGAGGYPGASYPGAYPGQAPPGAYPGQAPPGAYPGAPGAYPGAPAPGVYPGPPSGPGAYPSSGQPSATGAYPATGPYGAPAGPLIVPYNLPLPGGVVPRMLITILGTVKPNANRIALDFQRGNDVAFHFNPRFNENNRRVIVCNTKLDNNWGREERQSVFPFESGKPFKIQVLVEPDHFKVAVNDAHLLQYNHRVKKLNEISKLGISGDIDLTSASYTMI

Molecule | deltaH [1] [kcal/mol] | -TdeltaS [2] [kcal/mol] | deltaG [3] [kcal/mol]
NC(=O)[C@@H]1O[C@H](CO)[C@@H](O)[C@H](O)[C@@H]1S[C@@H]1O[C@H](CO)[C@H](O)[C@H](O)[C@H]1O | -7.74 | 1.15 | –
NC(=O)[C@@H]1O[C@H](CO)[C@H](O)[C@H](O)[C@@H]1S[C@@H]1O[C@H](CO)[C@H](O)[C@H](O)[C@H]1O | – | 0.0478 | –
OC[C@H]1O[C@@H](S[C@@H]2O[C@H](CO)[C@H](O)[C@H](O)[C@H]2O)[C@H](O)[C@@H](O)[C@H]1O | -4.73 | -1.21 | –
OC[C@H]1O[C@@H](S[C@@H]2CO[C@H](CO)[C@H](O)[C@@H]2O)[C@H](O)[C@@H](O)[C@H]1O | -6.48 | 0.0956 | –
LACTOSE, ANHYDROUS | -5.47 | -0.485 | -5.95
COC(=O)[C@@H]1O[C@H](CO)[C@H](O)[C@H](O)[C@@H]1S[C@@H]1O[C@H](CO)[C@H](O)[C@H](O)[C@H]1O | -7.72 | 1.24 | –
